biological target: recombinant tick kinin receptor (BMLK3) (Rhipicephalus microplus, UniProt Q9NHA4); assay: Dose-response dual-addition calcium fluorescence assay on BMLK3 cells; assay type: cell-based; conditions: 12 μM; BMLK3 cells; read-out: Inhibitory Efficacy at 12 μM
Sequence (Q9NHA4 entry or part of it): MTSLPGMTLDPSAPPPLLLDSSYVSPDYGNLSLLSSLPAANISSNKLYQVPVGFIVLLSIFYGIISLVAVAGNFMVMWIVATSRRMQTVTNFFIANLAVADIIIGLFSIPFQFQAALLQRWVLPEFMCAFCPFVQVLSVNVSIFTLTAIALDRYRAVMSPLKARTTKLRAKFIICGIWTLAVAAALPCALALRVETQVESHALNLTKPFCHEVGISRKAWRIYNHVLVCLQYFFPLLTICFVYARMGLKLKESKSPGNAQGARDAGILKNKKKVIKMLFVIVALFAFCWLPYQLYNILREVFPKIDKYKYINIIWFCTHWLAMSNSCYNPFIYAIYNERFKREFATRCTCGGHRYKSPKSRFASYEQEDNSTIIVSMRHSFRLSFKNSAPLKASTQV

Row | SMILES | inhibition at 12 µM [%]
1 | COc1ccc(S(=O)(=O)Nc2ccc(O)c(Sc3nc4ccccc4s3)c2)cc1 [SACC-0089495] | 71.3

same assay, conditions: Table 3

Row | SMILES | validation mark in dose-response assay
2 | Cc1cc(N=CN(C)C)c2ccccc2n1 [SACC-0068485] | *** (molecules which are either off-target or of low activity (<25 μM))
3 | CN1c2ccccc2Oc2nnc(Cl)cc21 [SACC-0075838] | *** (molecules which are either off-target or of low activity (<25 μM))
4 | COC(=O)c1cc2c(s1)Oc1cc(C(F)(F)F)ccc1C(=S)N2 [SACC-0081272] | *** (molecules which are either off-target or of low activity (<25 μM))
5 | COc1ccc(-c2nc(CN3CCN(C(=O)c4ccc5c(c4)NC(=O)[C@H](C)S5)CC3)cs2)cc1 [SACC-0088454] | *** (molecules which are either off-target or of low activity (<25 μM))
6 | COc1ccccc1-n1nnnc1S[C@@H](C)C(=O)c1ccc2c(c1)CCN2C(C)=O [SACC-0095062] | *** (molecules which are either off-target or of low activity (<25 μM))
7 | COc1ccccc1NC(=O)c1cc2ccccc2cc1OCc1nnnn1C1CC1 [SACC-0095102] | *** (molecules which are either off-target or of low activity (<25 μM))
8 | COc1ccccc1NC(=O)c1cn(CCC#N)nc1-c1ccc(C)c(C)c1 [SACC-0095111] | *** (molecules which are either off-target or of low activity (<25 μM))
9 | NC(N)=N/C(N)=N\c1ccc(Br)cc1 [SACC-0108986] | *** (molecules which are either off-target or of low activity (<25 μM))
10 | O=C(CCc1nc(-c2cccs2)no1)Nc1ccc(-n2cnc3ccccc32)nc1 [SACC-0114394] | *** (molecules which are either off-target or of low activity (<25 μM))
11 | O=C(Cn1cnc2ccccc21)NCc1ccc(OCc2ccccc2)cc1 [SACC-0115325] | *** (molecules which are either off-target or of low activity (<25 μM))
12 | O=C(NC(=S)NNC(=O)c1cc(-c2ccccc2)nc2ccccc12)c1cccs1 [SACC-0117741] | *** (molecules which are either off-target or of low activity (<25 μM))
13 | O=C(O)COc1ccccn1 [SACC-0126930] | *** (molecules which are either off-target or of low activity (<25 μM))

same assay, conditions: first addition, 20 concentrations 28 nM-25 μM; read-out: BMLK3 EC50

Row | SMILES | EC50 [µM]
14 | Cc1cc(N=CN(C)C)c2ccccc2n1 [SACC-0068485] | 0.743
15 | CN1c2ccccc2Oc2nnc(Cl)cc21 [SACC-0075838] | 4.37
16 | COC(=O)c1cc2c(s1)Oc1cc(C(F)(F)F)ccc1C(=S)N2 [SACC-0081272] | 1.48
17 | COc1ccc(-c2nc(CN3CCN(C(=O)c4ccc5c(c4)NC(=O)[C@H](C)S5)CC3)cs2)cc1 [SACC-0088454] | > 25
18 | COc1ccccc1-n1nnnc1S[C@@H](C)C(=O)c1ccc2c(c1)CCN2C(C)=O [SACC-0095062] | > 25
19 | COc1ccccc1NC(=O)c1cc2ccccc2cc1OCc1nnnn1C1CC1 [SACC-0095102] | 0.974
20 | COc1ccccc1NC(=O)c1cn(CCC#N)nc1-c1ccc(C)c(C)c1 [SACC-0095111] | > 25
21 | NC(N)=N/C(N)=N\c1ccc(Br)cc1 [SACC-0108986] | 0.684
22 | O=C(CCc1nc(-c2cccs2)no1)Nc1ccc(-n2cnc3ccccc32)nc1 [SACC-0114394] | 12
23 | O=C(Cn1cnc2ccccc21)NCc1ccc(OCc2ccccc2)cc1 [SACC-0115325] | 0.299
24 | O=C(NC(=S)NNC(=O)c1cc(-c2ccccc2)nc2ccccc12)c1cccs1 [SACC-0117741] | 1.74
25 | O=C(O)COc1ccccn1 [SACC-0126930] | < 0.0285

same assay, conditions: second addition Rhimi-K-1 1 μmol L^−1; read-out: BMLK3 IC50

Row | SMILES | IC50 [µM]
26 | Cc1cc(N=CN(C)C)c2ccccc2n1 [SACC-0068485] | 4.15
27 | CN1c2ccccc2Oc2nnc(Cl)cc21 [SACC-0075838] | 0.0845
28 | COC(=O)c1cc2c(s1)Oc1cc(C(F)(F)F)ccc1C(=S)N2 [SACC-0081272] | < 0.0285
29 | COc1ccc(-c2nc(CN3CCN(C(=O)c4ccc5c(c4)NC(=O)[C@H](C)S5)CC3)cs2)cc1 [SACC-0088454] | > 25
30 | COc1ccccc1-n1nnnc1S[C@@H](C)C(=O)c1ccc2c(c1)CCN2C(C)=O [SACC-0095062] | > 25
31 | COc1ccccc1NC(=O)c1cc2ccccc2cc1OCc1nnnn1C1CC1 [SACC-0095102] | 1.88
32 | COc1ccccc1NC(=O)c1cn(CCC#N)nc1-c1ccc(C)c(C)c1 [SACC-0095111] | 3.32
33 | NC(N)=N/C(N)=N\c1ccc(Br)cc1 [SACC-0108986] | 0.363
34 | O=C(CCc1nc(-c2cccs2)no1)Nc1ccc(-n2cnc3ccccc32)nc1 [SACC-0114394] | 10.9
35 | O=C(Cn1cnc2ccccc21)NCc1ccc(OCc2ccccc2)cc1 [SACC-0115325] | > 25
36 | O=C(NC(=S)NNC(=O)c1cc(-c2ccccc2)nc2ccccc12)c1cccs1 [SACC-0117741] | < 0.0285
37 | O=C(O)COc1ccccn1 [SACC-0126930] | > 25

same assay, conditions: virtual hit molecules; dual-addition assay, recombinant tick kinin receptor (BMLK3) cells; read-out: BMLK3 EC50

Row | SMILES | EC50 [µM]
38 | COc1ccc(S(=O)(=O)Nc2ccc(O)c(Sc3nc4ccccc4s3)c2)cc1 [SACC-0089495] | 3.04

same assay, conditions: virtual hit molecules; dual-addition assay, recombinant tick kinin receptor (BMLK3) cells; read-out: BMLK3 antagonist IC50

Row | SMILES | IC50 [µM]
39 | COc1ccc(S(=O)(=O)Nc2ccc(O)c(Sc3nc4ccccc4s3)c2)cc1 [SACC-0089495] | 6.53

tested on: R. microplus kinin receptor; assay: High-throughput dual-addition calcium fluorescence screen on BMLK3 cells; assay type: cell-based, Rhipicephalus microplus; conditions: compound 2 μmol L^−1, 5 min, then FFFSWGa 500 nmol L^−1

Row | SMILES | antagonist Io (%)
40 | Cc1cc(N=CN(C)C)c2ccccc2n1 [SACC-0068485] | 56
41 | COC(=O)c1cc2c(s1)Oc1cc(C(F)(F)F)ccc1C(=S)N2 [SACC-0081272] | 74
42 | COc1ccc(-c2nc(CN3CCN(C(=O)c4ccc5c(c4)NC(=O)[C@H](C)S5)CC3)cs2)cc1 [SACC-0088454] | 57
43 | NC(N)=N/C(N)=N\c1ccc(Br)cc1 [SACC-0108986] | 53
44 | O=C(Cn1cnc2ccccc21)NCc1ccc(OCc2ccccc2)cc1 [SACC-0115325] | 83

same assay, conditions: compound 2 μmol L^−1, first addition; relative to FFFSWGa 500 nmol L^−1

Row | SMILES | agonist NPA (%)
45 | CN1c2ccccc2Oc2nnc(Cl)cc21 [SACC-0075838] | 143
46 | COc1ccccc1-n1nnnc1S[C@@H](C)C(=O)c1ccc2c(c1)CCN2C(C)=O [SACC-0095062] | 47
47 | COc1ccccc1NC(=O)c1cc2ccccc2cc1OCc1nnnn1C1CC1 [SACC-0095102] | 145
48 | COc1ccccc1NC(=O)c1cn(CCC#N)nc1-c1ccc(C)c(C)c1 [SACC-0095111] | 71
49 | O=C(CCc1nc(-c2cccs2)no1)Nc1ccc(-n2cnc3ccccc32)nc1 [SACC-0114394] | 152
50 | O=C(NC(=S)NNC(=O)c1cc(-c2ccccc2)nc2ccccc12)c1cccs1 [SACC-0117741] | 127
51 | O=C(O)COc1ccccn1 [SACC-0126930] | 133

tested on: vector-only (V/O) CHO-K1 cells; assay: Dose-response dual-addition calcium fluorescence assay on vector-only cells; assay type: cell-based; conditions: Cricetulus griseus, CHO-K1; summary of 36 validated antagonist hits; vector-only cell (V/O)

Row | SMILES | IC50 [µM]
52 | COc1ccc(S(=O)(=O)Nc2ccc(O)c(Sc3nc4ccccc4s3)c2)cc1 [SACC-0089495] | 5.99

same assay, conditions: Cricetulus griseus, CHO-K1; virtual hit molecules; dual-addition assay, vector-only cell (V/O)

Row | SMILES | EC50 [µM]
53 | COc1ccc(S(=O)(=O)Nc2ccc(O)c(Sc3nc4ccccc4s3)c2)cc1 [SACC-0089495] | 9.06

same assay, conditions: Cricetulus griseus, CHO-K1; virtual hit molecules; dual-addition assay, vector-only cell (V/O); read-out: V/O antagonist IC50

Row | SMILES | IC50 [µM]
54 | COc1ccc(S(=O)(=O)Nc2ccc(O)c(Sc3nc4ccccc4s3)c2)cc1 [SACC-0089495] | 5.99

same assay, conditions: V/O cells, first addition

Row | SMILES | EC50 [µM]
55 | Cc1cc(N=CN(C)C)c2ccccc2n1 [SACC-0068485] | 3.77
56 | CN1c2ccccc2Oc2nnc(Cl)cc21 [SACC-0075838] | > 25
57 | COC(=O)c1cc2c(s1)Oc1cc(C(F)(F)F)ccc1C(=S)N2 [SACC-0081272] | 0.0485
58 | COc1ccc(-c2nc(CN3CCN(C(=O)c4ccc5c(c4)NC(=O)[C@H](C)S5)CC3)cs2)cc1 [SACC-0088454] | > 25
59 | COc1ccccc1-n1nnnc1S[C@@H](C)C(=O)c1ccc2c(c1)CCN2C(C)=O [SACC-0095062] | > 25
60 | COc1ccccc1NC(=O)c1cc2ccccc2cc1OCc1nnnn1C1CC1 [SACC-0095102] | < 0.0285
61 | COc1ccccc1NC(=O)c1cn(CCC#N)nc1-c1ccc(C)c(C)c1 [SACC-0095111] | > 25
62 | NC(N)=N/C(N)=N\c1ccc(Br)cc1 [SACC-0108986] | 0.132
63 | O=C(CCc1nc(-c2cccs2)no1)Nc1ccc(-n2cnc3ccccc32)nc1 [SACC-0114394] | 4.19
64 | O=C(Cn1cnc2ccccc21)NCc1ccc(OCc2ccccc2)cc1 [SACC-0115325] | > 25
65 | O=C(NC(=S)NNC(=O)c1cc(-c2ccccc2)nc2ccccc12)c1cccs1 [SACC-0117741] | 1.89
66 | O=C(O)COc1ccccn1 [SACC-0126930] | 0.761

same assay, conditions: V/O cells, second addition Rhimi-K-1 1 μmol L^−1; read-out: V/O antagonist IC50

Row | SMILES | IC50 [µM]
67 | Cc1cc(N=CN(C)C)c2ccccc2n1 [SACC-0068485] | 0.549
68 | CN1c2ccccc2Oc2nnc(Cl)cc21 [SACC-0075838] | > 25
69 | COC(=O)c1cc2c(s1)Oc1cc(C(F)(F)F)ccc1C(=S)N2 [SACC-0081272] | > 25
70 | COc1ccc(-c2nc(CN3CCN(C(=O)c4ccc5c(c4)NC(=O)[C@H](C)S5)CC3)cs2)cc1 [SACC-0088454] | 14.4
71 | COc1ccccc1-n1nnnc1S[C@@H](C)C(=O)c1ccc2c(c1)CCN2C(C)=O [SACC-0095062] | < 0.0285
72 | COc1ccccc1NC(=O)c1cc2ccccc2cc1OCc1nnnn1C1CC1 [SACC-0095102] | 2.21
73 | COc1ccccc1NC(=O)c1cn(CCC#N)nc1-c1ccc(C)c(C)c1 [SACC-0095111] | 7.33
74 | NC(N)=N/C(N)=N\c1ccc(Br)cc1 [SACC-0108986] | 3.87
75 | O=C(CCc1nc(-c2cccs2)no1)Nc1ccc(-n2cnc3ccccc32)nc1 [SACC-0114394] | 4.32
76 | O=C(Cn1cnc2ccccc21)NCc1ccc(OCc2ccccc2)cc1 [SACC-0115325] | > 25
77 | O=C(NC(=S)NNC(=O)c1cc(-c2ccccc2)nc2ccccc12)c1cccs1 [SACC-0117741] | 1.49
78 | O=C(O)COc1ccccn1 [SACC-0126930] | < 0.0285

tested on: Human dermal fibroblasts (HDF) cells; assay: Cytotoxicity assay (resazurin); assay type: cell-based; conditions: Human dermal fibroblasts cells; tested at 20 μcool L^−1

Row | SMILES | HDF average % growth inhibition [%]
79 | COc1ccc(S(=O)(=O)Nc2ccc(O)c(Sc3nc4ccccc4s3)c2)cc1 [SACC-0089495] | −2.817

Reference: patent US20240251785A1, “SMALL MOLECULE ANTAGONISTS AND AGONISTS OF ARTHROPOD KININ RECEPTORS FOR PEST CONTROL” (The Texas A&M University System, priority 2021, published 2024)
